Results as given in PubChem BioAssay (NCI).
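Values below derive from 48-hour exposures of cells grown in 96-well plates, with endpoints linearly interpolated between the two concentrations bracketing the appropriate inhibition level. GI50: concentration for 50% inhibition of growth. TGI is the concentration that stops growth completely.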

Assays:
Test in all cases: inhibition of tumour cell growth, NCI panel, 48 h
SNB-75 CNS = tested on: SNB-75 CNS
SK-MEL-28 melanoma = tested on: SK-MEL-28 melanoma
SF-539 CNS = tested on: SF-539 CNS
OVCAR-5 ovarian = tested on: OVCAR-5 ovarian
CCRF-CEM leukemia = tested on: CCRF-CEM leukemia
DU-145 prostate = tested on: DU-145 prostate
U251 CNS = tested on: U251 CNS
786-0 renal = tested on: 786-0 renal
SN12C renal = tested on: SN12C renal
SW-620 colon = tested on: SW-620 colon
SK-MEL-2 melanoma = tested on: SK-MEL-2 melanoma
OVCAR-3 ovarian = tested on: OVCAR-3 ovarian
MOLT-4 leukemia = tested on: MOLT-4 leukemia
RPMI-8226 leukemia = tested on: RPMI-8226 leukemia
SF-268 CNS = tested on: SF-268 CNS
K-562 leukemia = tested on: K-562 leukemia
M14 melanoma = tested on: M14 melanoma
A549 NSCLC = tested on: A549 NSCLC
SNB-19 CNS = tested on: SNB-19 CNS
MDA-N = tested on: MDA-N
NCI-H522 lung = tested on: NCI-H522 lung
OVCAR-8 ovarian = tested on: OVCAR-8 ovarian
OVCAR-4 ovarian = tested on: OVCAR-4 ovarian
HCT-15 colon = tested on: HCT-15 colon
COLO 205 colon = tested on: COLO 205 colon
HL-60(TB) leukemia = tested on: HL-60(TB) leukemia
A498 renal = tested on: A498 renal
HOP-62 NSCLC = tested on: HOP-62 NSCLC
MCF7 breast = tested on: MCF7 breast
LOX IMVI melanoma = tested on: LOX IMVI melanoma
BT-549 breast = tested on: BT-549 breast
IGROV1 ovarian = tested on: IGROV1 ovarian
UACC-62 melanoma = tested on: UACC-62 melanoma
SF-295 CNS = tested on: SF-295 CNS
RXF 393 renal = tested on: RXF 393 renal
CAKI-1 renal = tested on: CAKI-1 renal
HCT-116 colon = tested on: HCT-116 colon
MALME-3M melanoma = tested on: MALME-3M melanoma
HCC-2998 colon = tested on: HCC-2998 colon
NCI-H23 lung = tested on: NCI-H23 lung
NCI-H460 lung = tested on: NCI-H460 lung
HOP-92 NSCLC = tested on: HOP-92 NSCLC
KM12 colon = tested on: KM12 colon
MDA-MB-231 breast = tested on: MDA-MB-231 breast
NCI-H226 lung = tested on: NCI-H226 lung
SK-OV-3 ovarian = tested on: SK-OV-3 ovarian
HS 578T breast = tested on: HS 578T breast
PC-3 prostate = tested on: PC-3 prostate
HT29 colon = tested on: HT29 colon
T-47D breast = tested on: T-47D breast
MDA-MB-435 = tested on: MDA-MB-435
UACC-257 melanoma = tested on: UACC-257 melanoma
NCI/ADR-RES ovarian = tested on: NCI/ADR-RES ovarian
EKVX NSCLC = tested on: EKVX NSCLC
TK-10 renal = tested on: TK-10 renal
ACHN renal = tested on: ACHN renal

Which results are given for `O=C(c1ccc(Cl)cc1Cl)N1CCN(C(=O)c2ccc(Cl)cc2Cl)C1=S`?
GI50 (SNB-75 CNS): 22.3 µM; TGI (SNB-75 CNS): 61.7 µM; GI50 (SK-MEL-28 melanoma): 18.4 µM; TGI (SK-MEL-28 melanoma): 39.4 µM; GI50 (SF-539 CNS): 27.2 µM; TGI (SF-539 CNS): 49.6 µM; GI50 (OVCAR-5 ovarian): 21.6 µM; TGI (OVCAR-5 ovarian): 60.4 µM; GI50 (CCRF-CEM leukemia): 19.5 µM; TGI (CCRF-CEM leukemia): 38.5 µM; GI50 (DU-145 prostate): 30.6 µM; TGI (DU-145 prostate): 98.9 µM; GI50 (U251 CNS): 17.8 µM; TGI (U251 CNS): 35.3 µM; GI50 (786-0 renal): 18.6 µM; TGI (786-0 renal): 42.3 µM; GI50 (SN12C renal): 18.1 µM; TGI (SN12C renal): 34.4 µM; GI50 (SW-620 colon): 28.2 µM; TGI (SW-620 colon): 98.2 µM; GI50 (SK-MEL-2 melanoma): 18.4 µM; TGI (SK-MEL-2 melanoma): 36.2 µM; GI50 (OVCAR-3 ovarian): 19.7 µM; TGI (OVCAR-3 ovarian): 42.4 µM; GI50 (MOLT-4 leukemia): 20.5 µM; TGI (MOLT-4 leukemia): 43.5 µM; TGI (RPMI-8226 leukemia): 30.7 µM; GI50 (SF-268 CNS): 24.5 µM; TGI (SF-268 CNS): 56.1 µM; GI50 (K-562 leukemia): 31.4 µM; TGI (K-562 leukemia): > 100 µM; GI50 (M14 melanoma): 16.3 µM; TGI (M14 melanoma): 30.2 µM; GI50 (A549 NSCLC): 20.1 µM; TGI (A549 NSCLC): 43.2 µM; GI50 (SNB-19 CNS): 24.9 µM; TGI (SNB-19 CNS): 65.2 µM; GI50 (MDA-N): 20 µM; TGI (MDA-N): 43.8 µM; GI50 (NCI-H522 lung): 18.2 µM; TGI (NCI-H522 lung): 38.1 µM; GI50 (OVCAR-8 ovarian): 22.1 µM; TGI (OVCAR-8 ovarian): 48.5 µM; GI50 (OVCAR-4 ovarian): 25.8 µM; TGI (OVCAR-4 ovarian): 80.9 µM; GI50 (HCT-15 colon): 22.1 µM; TGI (HCT-15 colon): 57.3 µM; GI50 (COLO 205 colon): 21 µM; TGI (COLO 205 colon): 37.7 µM; GI50 (HL-60(TB) leukemia): 16.6 µM; TGI (HL-60(TB) leukemia): 34.1 µM; GI50 (A498 renal): 16.1 µM; TGI (A498 renal): 36.5 µM; GI50 (HOP-62 NSCLC): 23.1 µM; TGI (HOP-62 NSCLC): 66.5 µM; GI50 (MCF7 breast): 18.3 µM; TGI (MCF7 breast): 36.7 µM; GI50 (LOX IMVI melanoma): 17.1 µM; TGI (LOX IMVI melanoma): 30.8 µM; GI50 (BT-549 breast): 21.1 µM; TGI (BT-549 breast): 54.2 µM; GI50 (IGROV1 ovarian): 21 µM; TGI (IGROV1 ovarian): 46 µM; GI50 (UACC-62 melanoma): 17.3 µM; TGI (UACC-62 melanoma): 31.6 µM; GI50 (SF-295 CNS): 22.9 µM; TGI (SF-295 CNS): 61.7 µM; GI50 (RXF 393 renal): 18.5 µM; TGI (RXF 393 renal): 43 µM; GI50 (CAKI-1 renal): 22.1 µM; TGI (CAKI-1 renal): 52.1 µM; GI50 (HCT-116 colon): 23.5 µM; TGI (HCT-116 colon): 57.5 µM; GI50 (MALME-3M melanoma): 25.4 µM; TGI (MALME-3M melanoma): 62.7 µM; GI50 (HCC-2998 colon): 22 µM; TGI (HCC-2998 colon): 44.4 µM; GI50 (NCI-H23 lung): 19.8 µM; TGI (NCI-H23 lung): 43.4 µM; GI50 (NCI-H460 lung): 35.4 µM; TGI (NCI-H460 lung): > 100 µM; GI50 (HOP-92 NSCLC): 7.83 µM; TGI (HOP-92 NSCLC): 28.5 µM; GI50 (KM12 colon): 15.3 µM; TGI (KM12 colon): 29.4 µM; GI50 (MDA-MB-231 breast): 19.1 µM; TGI (MDA-MB-231 breast): 38.7 µM; GI50 (NCI-H226 lung): 40.9 µM; TGI (NCI-H226 lung): 60.1 µM; GI50 (SK-OV-3 ovarian): 22.8 µM; TGI (SK-OV-3 ovarian): 55.4 µM; GI50 (HS 578T breast): 41 µM; TGI (HS 578T breast): > 100 µM; GI50 (PC-3 prostate): 22.7 µM; TGI (PC-3 prostate): 68.3 µM; GI50 (HT29 colon): 20.4 µM; TGI (HT29 colon): 48.9 µM; GI50 (T-47D breast): 19.5 µM; TGI (T-47D breast): 62.6 µM; GI50 (MDA-MB-435): 16.4 µM; TGI (MDA-MB-435): 33.7 µM; GI50 (UACC-257 melanoma): 28.2 µM; TGI (UACC-257 melanoma): 63.4 µM; GI50 (NCI/ADR-RES ovarian): 24.8 µM; TGI (NCI/ADR-RES ovarian): 74.3 µM; GI50 (EKVX NSCLC): 20.5 µM; TGI (EKVX NSCLC): 48.4 µM; GI50 (TK-10 renal): 36.3 µM; TGI (TK-10 renal): > 100 µM; GI50 (ACHN renal): 21.3 µM; TGI (ACHN renal): 45.7 µM
